Experimental data reported in PubChem BioAssay AID1259407 (Chemical Carcinogenesis Research Information System (CCRIS), 2018).
The source made the active and inactive calls. No rule for the calls is given here.

Tested on: CCRIS mutagenicity, Ames/micronucleus/aberration tests
Experiment: CCRIS mutagenicity studies

## Cc1cc(-c2ccc(N/N=C3\C(=O)c4c(O)cc(S(=O)(=O)O)cc4C=C3S(=O)(=O)O)c(C)c2)ccc1N/N=C1\C(=O)c2c(O)cc(S(=O)(=O)O)cc2C=C1S(=O)(=O)O
Test System: AMES SALMONELLA TYPHIMURIUM, Strain/Indicator: TA98, Metabolic Activation: HAMSTER, LIVER, S-9, AROCLOR 1254 (10%), Method: PREINCUBATION
  mutagenic call: inactive; negative
Test System: AMES SALMONELLA TYPHIMURIUM, Strain/Indicator: TA98, Metabolic Activation: NONE, Method: PREINCUBATION
  mutagenic call: inactive; negative
Test System: AMES SALMONELLA TYPHIMURIUM, Strain/Indicator: TA98, Metabolic Activation: RAT, LIVER, S-9, AROCLOR 1254 (10%), Method: PREINCUBATION
  mutagenic call: inactive; negative
Test System: AMES SALMONELLA TYPHIMURIUM, Strain/Indicator: TA100, Metabolic Activation: HAMSTER, LIVER, S-9, AROCLOR 1254 (10%), Method: PREINCUBATION
  mutagenic call: inactive; negative
Test System: AMES SALMONELLA TYPHIMURIUM, Strain/Indicator: TA100, Metabolic Activation: NONE, Method: PREINCUBATION
  mutagenic call: inactive; negative
Test System: AMES SALMONELLA TYPHIMURIUM, Strain/Indicator: TA100, Metabolic Activation: RAT, LIVER, S-9, AROCLOR 1254 (10%), Method: PREINCUBATION
  mutagenic call: inactive; negative
Test System: AMES SALMONELLA TYPHIMURIUM, Strain/Indicator: TA1535, Metabolic Activation: HAMSTER, LIVER, S-9, AROCLOR 1254 (10%), Method: PREINCUBATION
  mutagenic call: inactive; negative
Test System: AMES SALMONELLA TYPHIMURIUM, Strain/Indicator: TA1535, Metabolic Activation: NONE, Method: PREINCUBATION
  mutagenic call: inactive; negative
Test System: AMES SALMONELLA TYPHIMURIUM, Strain/Indicator: TA1535, Metabolic Activation: RAT, LIVER, S-9, AROCLOR 1254 (10%), Method: PREINCUBATION
  mutagenic call: inactive; negative
Test System: AMES SALMONELLA TYPHIMURIUM, Strain/Indicator: TA1537, Metabolic Activation: HAMSTER, LIVER, S-9, AROCLOR 1254 (10%), Method: PREINCUBATION
  mutagenic call: inactive; negative
Test System: AMES SALMONELLA TYPHIMURIUM, Strain/Indicator: TA1537, Metabolic Activation: NONE, Method: PREINCUBATION
  mutagenic call: inactive; negative
Test System: AMES SALMONELLA TYPHIMURIUM, Strain/Indicator: TA1537, Metabolic Activation: RAT, LIVER, S-9, AROCLOR 1254 (10%), Method: PREINCUBATION
  mutagenic call: inactive; negative
Test System: AMES SALMONELLA TYPHIMURIUM, Strain/Indicator: TA1538, Metabolic Activation: RAT, LIVER, S-9, AROCLOR 1254, Method: STANDARD PLATE
  mutagenic call: inactive; negative

## Clc1ccccc1C(c1ccccc1)C(c1ccccc1)c1ccccc1Cl (stereo unspecified)
Test System: Mouse lymphoma, Strain/Indicator: L5178Y (tk+/tk-), Metabolic Activation: None, Method: Suspension/plate
  mutagenic call: inactive; negative
Test System: Mouse lymphoma, Strain/Indicator: L5178Y (tk+/tk-), Metabolic Activation: Rat, Liver, S-9, Aroclor 1254, Method: Suspension/plate
  mutagenic call: active; equivocal (previous evaluation positive)

## CC(C)(C)c1ccc(C(=O)O)cc1
Test System: Ames Salmonella typhimurium, Strain/Indicator: TA98, Metabolic Activation: None, Method: Preincubation
  mutagenic call: inactive; negative
Test System: Ames Salmonella typhimurium, Strain/Indicator: TA98, Metabolic Activation: Rat, Liver, S9, Sodium phenobarbital and 5,6-benzoflavone (10%), Method: Preincubation
  mutagenic call: inactive; negative
Test System: Ames Salmonella typhimurium, Strain/Indicator: TA100, Metabolic Activation: None, Method: Preincubation
  mutagenic call: inactive; negative
Test System: Ames Salmonella typhimurium, Strain/Indicator: TA100, Metabolic Activation: Rat, Liver, S9, Sodium phenobarbital and 5,6-benzoflavone (10%), Method: Preincubation
  mutagenic call: inactive; negative
Test System: Ames Salmonella typhimurium, Strain/Indicator: TA1535, Metabolic Activation: None, Method: Preincubation
  mutagenic call: inactive; negative
Test System: Ames Salmonella typhimurium, Strain/Indicator: TA1535, Metabolic Activation: Rat, Liver, S9, Sodium phenobarbital and 5,6-benzoflavone (10%), Method: Preincubation
  mutagenic call: inactive; negative
Test System: Ames Salmonella typhimurium, Strain/Indicator: TA1537, Metabolic Activation: None, Method: Preincubation
  mutagenic call: inactive; negative
Test System: Ames Salmonella typhimurium, Strain/Indicator: TA1537, Metabolic Activation: Rat, Liver, S9, Sodium phenobarbital and 5,6-benzoflavone (10%), Method: Preincubation
  mutagenic call: inactive; negative
Test System: E. coli, Strain/Indicator: WP2uvrA/pKM101, Metabolic Activation: None, Method: Preincubation
  mutagenic call: inactive; negative
Test System: E. coli, Strain/Indicator: WP2uvrA/pKM101, Metabolic Activation: Rat, Liver, S9, Sodium phenobarbital and 5,6-benzoflavone (10%), Method: Preincubation
  mutagenic call: inactive; negative

## CCOC(=O)CC(SP(=S)(OC)OC)C(=O)OCC (stereo unspecified)
End Point: IN VITRO CHROMOSOMAL ABERRATIONS, Test System: CHINESE HAMSTER OVARY CELLS, Metabolic Activation: NONE
  mutagenic call: inactive; negative
End Point: IN VITRO CHROMOSOMAL ABERRATIONS, Test System: CHINESE HAMSTER OVARY CELLS, Metabolic Activation: RAT, LIVER, S-9, AROCLOR 1254
  mutagenic call: active; positive; precipitation occurred at all doses
End Point: IN VITRO MICRONUCLEUS, Test System: HUMAN PERIPHERAL LYMPHOCYTES, Metabolic Activation: NONE, Method: DUAL COLOR PROBE
  mutagenic call: active; positive
End Point: IN VIVO CHROMOSOMAL ABERRATIONS, Test System: BONE MARROW, Species: MOUSE, Strain/Sex: SWISS/MALE, Route: IP INJECTION
  mutagenic call: active; positive (structural changes: chromosome gaps, abnormal metaphases)
End Point: IN VIVO CHROMOSOMAL ABERRATIONS, Test System: BONE MARROW, Species: MOUSE, Strain/Sex: SWISS/MALE, Route: ORAL (DIET)
  mutagenic call: active; positive (structural changes: gaps, breaks, deletions, tetraploidy)
End Point: IN VIVO MICRONUCLEUS, Test System: BONE MARROW POLYCHROMATIC ERYTHROCYTES, Species: MOUSE, Strain/Sex: SWISS/MALE, FEMALE, Route: IP INJECTION
  mutagenic call: active; positive; higher dose effective
End Point: IN VIVO MICRONUCLEUS, Test System: BONE MARROW POLYCHROMATIC ERYTHROCYTES, Species: MOUSE, Strain/Sex: SWISS/MALE, FEMALE, Route: ORAL
  mutagenic call: active; positive
End Point: In vivo micronucleus, Test System: Peripheral blood polychromatic and normochromatic erythrocytes, Species: Rat, Strain/Sex: Wistar/Male, Route: Intraperitoneal
  mutagenic call: active; positive. positive response at highest dose.
End Point: In vivo micronucleus, Test System: Peripheral blood polychromatic erythrocytes, Species: Rat, Strain/Sex: Wistar/Male, Route: Intraperitoneal
  mutagenic call: inactive; negative. increases in ratio of polychromatic erythrocytes to normochromatic lym
Test System: AMES SALMONELLA TYPHIMURIUM, Strain/Indicator: TA97A, Metabolic Activation: NONE, Method: STANDARD PLATE
  mutagenic call: inactive; negative
Test System: AMES SALMONELLA TYPHIMURIUM, Strain/Indicator: TA97A, Metabolic Activation: RAT, CECAL CELL FREE EXTRACT, Method: STANDARD PLATE
  mutagenic call: inactive; negative
Test System: AMES SALMONELLA TYPHIMURIUM, Strain/Indicator: TA97A, Metabolic Activation: RAT, LIVER, S-9, AROCLOR 1254, Method: STANDARD PLATE
  mutagenic call: inactive; negative
Test System: AMES SALMONELLA TYPHIMURIUM, Strain/Indicator: TA98, Metabolic Activation: NONE, Method: STANDARD PLATE
  mutagenic call: inactive; negative
Test System: AMES SALMONELLA TYPHIMURIUM, Strain/Indicator: TA98, Metabolic Activation: RAT, CECAL CELL FREE EXTRACT, Method: STANDARD PLATE
  mutagenic call: inactive; negative
Test System: AMES SALMONELLA TYPHIMURIUM, Strain/Indicator: TA98, Metabolic Activation: RAT, LIVER, S-9, AROCLOR 1254, Method: STANDARD PLATE
  mutagenic call: inactive; negative
Test System: AMES SALMONELLA TYPHIMURIUM, Strain/Indicator: TA98, Metabolic Activation: S-9, NADPH GENERATING SYSTEM, Method: STANDARD PLATE
  mutagenic call: inactive; negative
Test System: AMES SALMONELLA TYPHIMURIUM, Strain/Indicator: TA100, Metabolic Activation: NONE, Method: STANDARD PLATE
  mutagenic call: inactive; negative
Test System: AMES SALMONELLA TYPHIMURIUM, Strain/Indicator: TA100, Metabolic Activation: RAT, CECAL CELL FREE EXTRACT, Method: STANDARD PLATE
  mutagenic call: inactive; negative
Test System: AMES SALMONELLA TYPHIMURIUM, Strain/Indicator: TA100, Metabolic Activation: RAT, LIVER, S-9, AROCLOR 1254, Method: STANDARD PLATE
  mutagenic call: inactive; negative
Test System: AMES SALMONELLA TYPHIMURIUM, Strain/Indicator: TA102, Metabolic Activation: NONE, Method: STANDARD PLATE
  mutagenic call: inactive; negative
Test System: AMES SALMONELLA TYPHIMURIUM, Strain/Indicator: TA102, Metabolic Activation: S-9, NADPH GENERATING SYSTEM, Method: STANDARD PLATE
  mutagenic call: inactive; negative
Test System: AMES SALMONELLA TYPHIMURIUM, Strain/Indicator: TA1535, Metabolic Activation: NONE, Method: STANDARD PLATE
  mutagenic call: inactive; negative
Test System: AMES SALMONELLA TYPHIMURIUM, Strain/Indicator: TA1535, Metabolic Activation: S-9, NADPH GENERATING SYSTEM, Method: STANDARD PLATE
  mutagenic call: inactive; negative
Test System: AMES SALMONELLA TYPHIMURIUM, Strain/Indicator: TA1537, Metabolic Activation: NONE, Method: STANDARD PLATE
  mutagenic call: inactive; negative
Test System: AMES SALMONELLA TYPHIMURIUM, Strain/Indicator: TA1537, Metabolic Activation: S-9, NADPH GENERATING SYSTEM, Method: STANDARD PLATE
  mutagenic call: inactive; negative

## O=C(/C=C/c1ccc(O)c(O)c1)O[C@H](Cc1ccc(O)c(O)c1)C(=O)O
End Point: In vivo micronucleus, Species: Mouse, Strain/Sex: Swiss/Male, Route: Oral
  mutagenic call: inactive; negative
